Where “and” joins values, the source holds several entries; their conditions need not be identical. Identical values can stand only once.

The assay concerns 233499-124-R-J3-PDC complex spheroid viability, % test/control. In words: Anticancer human tumor 233499-124-R-J3-PDC patient-derived colon adenocarcinoma cell line growth inhibition. The conditions noted are these: for viability, T/C: stronger effect = lower value. An excerpt: Multicellular complex tumor spheroid response to LSD1 Inhibitor Iadademstat in combination with a variety of drugs and investigational agents in selected tumor cell lines
The current study was undertaken to assess response to LSD1 inhibitors in combination with standard-of-care drugs and investigational agents in solid tumor complex spheroid models as well as in the K-562 leukemia. Complex spheroids include a stromal component modeled by human endothelial cells (HUVEC) and fibroblasts modeled by human mesenchymal stem cells (MSCs). The concentration ranges selected for each drug and investigational agent were based upon clinically achievable concentrations if the clinical Cmax of the agent was known.
Compounds. The drugs and investigational agents used in this study are listed on Table 1. All of the agents used, including staurosporine (NSC755774) and gemcitabine (NSC613327), were obtained from the Developmental Therapeutics Program, NCI. FDA-approved anticancer drugs are available from the NCI at http://dtp.nci.nih.gov/branches/dscb/oncology_drugset_explanation.html. Drugs and investigational agents were >95% pure by proton nuclear magnetic resonance (NMR) and liquid chromatography/mass spectrometry (LC/MS). Stock solutions were prepared at 400x in DMSO, stored at -70 degrees C, and diluted in fresh medium prior to their use. The final concentration of DMSO in cell culture wells never exceeded 0.25% (v/v). The FDA-approved anticancer drug set is available from the Developmental Therapeutics Program at https://dtp.cancer.gov/organization/dscb/obtaining/available_plates.htm. All drugs and investigational agents were tested over a range starting from a high concentration at or near the clinical Cmax and decreasing in half-log increments. If the clinical Cmax for an agent had not been determined, the highest concentration tested was 10 microM.
Cell Lines. The patient-derived cancer cell (PDC) lines: 292921-168-R-J2-PDC, K24384-001-R-PDC, and 521955-158-R2-J5-PDC pancreatic carcinomas, 556581-035-R-J1 ovarian carcinoma, 324938-238-R-J1-PDC, 855422-203-R-J1-PDC and 883617-216-R-J1-PDC urothelial bladder carcinomas, 743489-274-T-PDC renal cell carcinoma, 138582-R-J1 Merkel cell tumor, K60290-347-R-J1 and K57222-313-R-J1-PDC glioblastomas, 653999-131-R-J2-PDC, LG0703-F948-PDC, and 349418-098-R-PDC non-small cell lung carcinomas, 885512-296-R-J2-PDC, 171881-019-R-J1-PDC breast carcinomas and 186277-243-T-J2-PDC and 233499-124-R-J2-PDC colon carcinomas were obtained from the NCI Patient-Derived Models Repository (PDMR, https://pdmr.cancer.gov). The established cell lines NCI/ADR-RES (RRID:CVCL_14520 and OVCAR-5 (RRID:CVCL_1628) ovarian carcinomas, 786-O (RRID:CVCL_1051) and A498 (RRID:CVCL_A498) renal cell carcinoma, NCI-H211 (ATCC, cat. CRL-5824; RRID:CVCL_1529), NCI-H196 (ATCC, cat. CRL-5823, RRID:CVCL_1509), SW 1271 (ATCC, cat. CRL-2177, RRID:CVCL_1716) and NCI-H1876 (ATCC, cat. CRL-5902, RRID:CVCL_1503) small cell lung carcinomas, MDA-MB-231 (RRID:CVCL_0062) and MDA-MB-468 (RRID:CVCL_0419)breast carcinomas (10-12). Pooled donor human umbilical vein endothelial cells (HUVEC, Lonza, cat. CC-2519) and human mesenchymal stem cells (hMSC, Lonza, cat. PT-2501) were purchased from Lonza (Walkersville, MD).
Cell Culture. All cells were maintained in an incubator at 37 degrees C and 5% CO2 with 95% humidity. The PDC lines were cultured according to standard operating procedures established by the NCI PDMR (https://pdmr.cancer.gov). Briefly all PDCs were thawed and cultured in Matrigel-coated flasks prepared with a working solution of 1X Ham's F-12 nutrient mix, without supplementation (Invitrogen, Waltham, MA, cat. 11765054), 100 U/mL penicillin-streptomycin (Invitrogen, cat. 15140122), and 2.5% Matrigel (Corning Inc., Corning, NY, cat. 354248) for the first three passages. […]

Setting [1] is: curve of first compound, second compound 0.1 µM.
The mark [2] stands for this setting: curve of first compound, second compound 0.316 µM.
[3] abbreviates: curve of first compound, second compound 1 µM.
Where [4] appears, read: curve of first compound, second compound 3.16 µM.
Setting [5] is: curve of first compound, second compound 10 µM.
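Further: spheroids exposed to agents for one week before readout.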

A word on the viability, T/C: it is the result in the treated group divided by that in the control group, in per cent. Usually IC50 stands for the concentration at which inhibition is half-maximal. `CC(C)c1c(-c2ccccc2)nc2c(C#N)c[nH]n2c1=O`: the viability, T/C (compound 0.0316 µM) is 90.9% and 92.4%; the viability, T/C (compound 0.1 µM) was 103% and 96.3%; the viability, T/C (compound 0.316 µM) was 92.6% and 89.1%; the viability, T/C (compound 1 µM) is 95% and 106%; the viability, T/C (compound 3.16 µM) was 105% and 102%; the viability, T/C (compound 10 µM) is 96.2% and 115%. The half-inhibitory concentration (IC50) (curve of compound) was above 10000 nM.
Take `COc1ccc([C@@H](O)c2cc(-c3ncnc4cc(N5CCOCC5)ccc34)c(F)cc2Cl)nn1`: the viability, T/C is, setting by setting: (compound 0.0316 µM) 81.5% and 87.1%; (compound 0.1 µM) 76.2% and 85.3%; (compound 0.316 µM) 77% and 72.1%; (compound 1 µM) 82.3% and 74.6%; (compound 3.16 µM) 61.9% and 68.9%; (compound 10 µM) 12.8% and 35.8%. The IC50 (curve of compound) is 4170 nM and 5860 nM.
As to `NC1CC1c1ccc(-c2cccc(O)c2)cc1` (configuration not stated), the viability, T/C (compound 0.1 µM) was 91.3% and 107%. Moreover, the IC50 (compound alone, run of 02/01/2022) was above 10000 nM.
For `NC1CCC(NC2CC2c2ccccc2)CC1` (configuration not stated), the IC50 (compound alone, run of 01/24/2022) was above 10000 nM.
Take `COc1cc(C2c3cc4c(cc3C(OC3OC5COC(C)OC5C(O)C3O)C3COC(=O)C23)OCO4)cc(OC)c1O` (configuration not stated) + NC1CC1c1ccc(-c2cccc(O)c2)cc1: the half-maximal inhibitory concentration (IC50) under setting [1] was 717 nM; the IC50 under setting [2] was 1690 nM; the 50% inhibitory concentration (IC50) under setting [3] was 1540 nM; the half-inhibitory concentration (IC50) under setting [4] was determined as 728 nM; the IC50 under setting [5] is 209 nM. Also, the viability, T/C is, setting by setting: (second compound 0.1 µM, first compound 0.00949 µM) 104%; (second compound 0.1 µM, first compound 0.03 µM) 101%; (second compound 0.1 µM, first compound 0.0949 µM) 86.5%; (second compound 0.1 µM, first compound 0.3 µM) 57%; (second compound 0.1 µM, first compound 0.949 µM) 51.9%; (second compound 0.1 µM, first compound 3 µM) 41.5%. Besides, the viability, T/C is, setting by setting: (second compound 0.316 µM, first compound 0.00949 µM) 109%; (second compound 0.316 µM, first compound 0.03 µM) 113%; (second compound 0.316 µM, first compound 0.0949 µM) 94.8%; (second compound 0.316 µM, first compound 0.3 µM) 73.4%; (second compound 0.316 µM, first compound 0.949 µM) 51.5%; (second compound 0.316 µM, first compound 3 µM) 47.8%. The viability, T/C is 94.3% (second compound 1 µM, first compound 0.00949 µM); 82.1% (second compound 1 µM, first compound 0.03 µM); 73.3% (second compound 1 µM, first compound 0.0949 µM); 60.6% (second compound 1 µM, first compound 0.3 µM); 53.7% (second compound 1 µM, first compound 0.949 µM); 45.5% (second compound 1 µM, first compound 3 µM). In addition, the viability, T/C was 91.1% (second compound 3.16 µM, first compound 0.00949 µM); 86.2% (second compound 3.16 µM, first compound 0.03 µM); 73% (second compound 3.16 µM, first compound 0.0949 µM); 62.1% (second compound 3.16 µM, first compound 0.3 µM); 42% (second compound 3.16 µM, first compound 0.949 µM); 46.6% (second compound 3.16 µM, first compound 3 µM). For the same compound, the viability, T/C by setting is: (second compound 10 µM, first compound 0.00949 µM) 71.4%; (second compound 10 µM, first compound 0.03 µM) 72.4%; (second compound 10 µM, first compound 0.0949 µM) 63.1%; (second compound 10 µM, first compound 0.3 µM) 44%; (second compound 10 µM, first compound 0.949 µM) 46.5%; (second compound 10 µM, first compound 3 µM) 40.6%.
Regarding `Nc1ncn(C2CC(O)C(CO)O2)c(=O)n1` (configuration not stated) + NC1CC1c1ccc(-c2cccc(O)c2)cc1, the half-inhibitory concentration (IC50) is, setting by setting: under setting [1], above 1000 nM; under setting [2], above 1000 nM; under setting [3], above 1000 nM; under setting [4], above 1000 nM; under setting [5], above 1000 nM. In addition, the viability, T/C is 101% (second compound 0.1 µM, first compound 0.00316 µM); 98.9% (second compound 0.1 µM, first compound 0.01 µM); 86.8% (second compound 0.1 µM, first compound 0.0316 µM); 81.2% (second compound 0.1 µM, first compound 0.1 µM); 89.6% (second compound 0.1 µM, first compound 0.316 µM); 108% (second compound 0.1 µM, first compound 1 µM). Further, the viability, T/C (second compound 0.316 µM, first compound 0.00316 µM) was 120%; the viability, T/C (second compound 0.316 µM, first compound 0.01 µM) is 99.5%; the viability, T/C (second compound 0.316 µM, first compound 0.0316 µM) was 92.2%; the viability, T/C (second compound 0.316 µM, first compound 0.1 µM) was 75%; the viability, T/C (second compound 0.316 µM, first compound 0.316 µM) was 96.9%; the viability, T/C (second compound 0.316 µM, first compound 1 µM) was 87.6%. Also, the viability, T/C reads like this: (second compound 1 µM, first compound 0.00316 µM) 104%; (second compound 1 µM, first compound 0.01 µM) 89.9%; (second compound 1 µM, first compound 0.0316 µM) 72.9%; (second compound 1 µM, first compound 0.1 µM) 83.7%; (second compound 1 µM, first compound 0.316 µM) 69.1%; (second compound 1 µM, first compound 1 µM) 88.4%. In addition, the viability, T/C reads like this: (second compound 3.16 µM, first compound 0.00316 µM) 82.5%; (second compound 3.16 µM, first compound 0.01 µM) 93.2%; (second compound 3.16 µM, first compound 0.0316 µM) 80.4%; (second compound 3.16 µM, first compound 0.1 µM) 74.4%; (second compound 3.16 µM, first compound 0.316 µM) 74.6%; (second compound 3.16 µM, first compound 1 µM) 92%. The viability, T/C is 80.5% (second compound 10 µM, first compound 0.00316 µM); 83.9% (second compound 10 µM, first compound 0.01 µM); 80.5% (second compound 10 µM, first compound 0.0316 µM); 60.9% (second compound 10 µM, first compound 0.1 µM); 58.1% (second compound 10 µM, first compound 0.316 µM); 90.9% (second compound 10 µM, first compound 1 µM).

The values are drawn from PubChem BioAssay AID1918930 (Molecular Pharmacology Branch, DTP, NCI, 2023).
